Read-outs that look alike come from different tables or passages of the source.
What was measured:
K-562 = assay: Inhibition of cells growth by colorimetric (SRB) assay, K-562; settings: for GI50 / CC50: Homo sapiens, K562, 48 h; for GI50: read-out: GI50 K-562, SRB assay, 48 hours exposure; for CC50: read-out: LC50 K-562, SRB assay, 48 hours exposure; for TGI K-562: SRB assay, 48 hours exposure
Outline: (§1)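 Human tumour cells seeded at 5×10^3/well in RPMI 1640 10% FBS, attached 18 h, then exposed 48 h to samples at 10 to 10^−8 μg/ml in DMSO/EtOH/PBS (0.5:0.5:99). Growth read by SRB staining after TCA fixation, OD 490 nm, triplicate wells; GI, TGI and LC derived.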

A-549 = assay: Inhibition of cells growth by colorimetric (SRB) assay, A-549; settings: for GI50 / CC50: Homo sapiens, A549, 48 h; for TGI A-549 / A-549 TGI: SRB assay, 48 hours exposure
Outline: as §1

SK-MEL-28 = assay: Inhibition of cells growth by colorimetric (SRB) assay, SK-MEL-28; settings: for GI50 / CC50: Homo sapiens, SK-MEL-28, 48 h; for GI50: read-out: GI50 MEL-28, SRB assay, 48 hours exposure; for CC50: read-out: LC50 MEL-28, SRB assay, 48 hours exposure; for TGI MEL-28: SRB assay, 48 hours exposure
Outline: as §1

HT-29 = assay: Inhibition of cells growth by colorimetric (SRB) assay, HT-29; settings: for GI50 / CC50: Homo sapiens, HT-29, 48 h; for TGI HT-29 / HT-29 TGI: SRB assay, 48 hours exposure
Outline: as §1

LoVo = assay: Inhibition of cells growth by colorimetric (SRB) assay, LoVo
Outline: as §1

LoVo-Dox = assay: Inhibition of cells growth by colorimetric (SRB) assay, LoVo-Dox
Outline: as §1

DU-145 = assay: Inhibition of cells growth by colorimetric (SRB) assay, DU-145; settings: for GI50 / CC50: Homo sapiens, DU-145, 48 h; for GI50: read-out: GI50 DU-145, SRB assay, 48 hours exposure; for CC50: read-out: LC50 DU-145, SRB assay, 48 hours exposure; for TGI DU-145: SRB assay, 48 hours exposure
Outline: as §1

LNCaP = assay: Inhibition of cells growth by colorimetric (SRB) assay, LNCaP; settings: for GI50 / CC50: Homo sapiens, LNCaP, 48 h; for GI50: read-out: GI50 LN-caP, SRB assay, 48 hours exposure; for CC50: read-out: LC50 LN-caP, SRB assay, 48 hours exposure; for TGI LN-caP: SRB assay, 48 hours exposure
Outline: as §1

SK-BR-3 = assay: Inhibition of cells growth by colorimetric (SRB) assay, SK-BR-3; settings: for GI50 / CC50: Homo sapiens, SK-BR-3, 48 h; for GI50: read-out: GI50 SK-BR-3, SRB assay, 48 hours exposure; for CC50: read-out: LC50 SK-BR-3, SRB assay, 48 hours exposure; for TGI SK-BR-3: SRB assay, 48 hours exposure
Outline: as §1

IGROV-1 = assay: Inhibition of cells growth by colorimetric (SRB) assay, IGROV-1; settings: for GI50 / CC50: Homo sapiens, IGROV-1, 48 h; for GI50: read-out: GI50 IGROV, SRB assay, 48 hours exposure; for CC50: read-out: LC50 IGROV, SRB assay, 48 hours exposure; for TGI IGROV: SRB assay, 48 hours exposure
Outline: as §1

IGROV-ET = assay: Inhibition of cells growth by colorimetric (SRB) assay, IGROV-ET; settings: for GI50 / CC50: Homo sapiens, 48 h; for GI50: read-out: GI50 IGROV-ET, SRB assay, 48 hours exposure; for CC50: read-out: LC50 IGROV-ET, SRB assay, 48 hours exposure; for TGI IGROV-ET: SRB assay, 48 hours exposure
Outline: as §1

PANC-1 = assay: Inhibition of cells growth by colorimetric (SRB) assay, PANC-1; settings: for GI50: read-out: GI50 PANC-1, SRB assay, 48 hours exposure
Outline: as §1

[1] = Inhibition of cells growth by colorimetric (SRB) assay, HMEC1; settings: human, HMEC1 cells, 48 hours exposure
HMEC1 = assay: as above; settings: for GI50: Homo sapiens, HMEC-1, 48 h
[2] = read-out: GI50 A-549, SRB assay, 48 hours exposure
[3] = read-out: LC50 A-549, SRB assay, 48 hours exposure
[4] = read-out: GI50 HT-29, SRB assay, 48 hours exposure
[5] = read-out: LC50 HT-29, SRB assay, 48 hours exposure
[6] = read-out: GI50 H-MEC-1, SRB assay, 48 hours exposure
[7] = SRB assay, 48 hours exposure, in M (unit assumed)
[8] = read-out: A-549 LC50, SRB assay, 48 hours exposure
[9] = read-out: HT-29 GI50, SRB assay, 48 hours exposure
[10] = read-out: HT-29 LC50, SRB assay, 48 hours exposure

SMILES | GI50 (K-562) [µM] | GI50 (A-549; [2]) [µM] | GI50 (SK-MEL-28) [µM] | GI50 (HT-29; [4]) [µM] | GI50 (DU-145) [µM] | GI50 (LNCaP) [µM] | CC50 (K-562) [µM] | TGI K-562 (K-562) | CC50 (A-549; [3]) [µM] | TGI A-549 (A-549) | CC50 (SK-MEL-28) [µM] | TGI MEL-28 (SK-MEL-28) | CC50 (HT-29; [5]) [µM] | TGI HT-29 (HT-29) | CC50 (DU-145) [µM] | TGI DU-145 (DU-145) | CC50 (LNCaP) [µM] | CC50 at 48 h ([1]; LC50 H-MEC-1, SRB assay) [µM] | GI50 (HMEC1; [6]) [µM] | TGI H-MEC-1 (HMEC1; [7]) | also measured
CSc1nccc(-c2c3cc(F)c(Cl)nc3n3c(SC)nccc23)n1 [Compound 48] |  | 25.5 |  | 25.5 |  |  |  |  | 25.5 | 2.55E−05 |  |  | 25.5 | 2.55E−05 |  |  |  | 25.5 | 25.5 | 2.55E−05 | 
CSc1nccc2c(-c3ccccc3)c3cccnc3n12 [Compound 58] |  | ≥ 34.3 |  |  |  |  |  |  |  |  |  |  |  |  |  |  |  | ≥ 34.3 | ≥ 34.3 | 3.43E−05 | CC50 (A-549; [8]): ≥ 34.3 µM; A-549 TGI (A-549): 3.43E−05; GI50 (HT-29; [9]): ≥ 34.3 µM; CC50 (HT-29; [10]): ≥ 34.3 µM; HT-29 TGI (HT-29): 3.43E−05
Cc1nccc(-c2c3cccnc3n3c(N)nccc23)n1 [Compound 75] |  |  |  |  |  |  |  |  |  |  |  |  |  |  |  |  |  |  |  |  | GI50 (A-549; read-out: A-549 GI50, SRB assay, 48 hours exposure): 4.2 µM; CC50 (A-549; [8]): 21.3 µM; A-549 TGI (A-549): 9.45E−06; GI50 (HT-29; [9]): 5.79 µM; CC50 (HT-29; [10]): 36.2 µM; HT-29 TGI (HT-29): 3.62E−05; CC50 at 48 h ([1]; H-MEC-1 LC50, SRB assay): 36.2 µM; GI50 (HMEC1; read-out: H-MEC-1 GI50, SRB assay, 48 hours exposure): 1.43 µM; H-MEC-1 TGI (HMEC1; [7]): 8.00E−06

More lines, main results first:

GI50 (K-562) [µM] | GI50 (A-549; [2]) [µM] | GI50 (SK-MEL-28) [µM] | GI50 (HT-29; [4]) [µM] | GI50 (DU-145) [µM] | GI50 (LNCaP) [µM] | SMILES | CC50 (K-562) [µM] | TGI K-562 (K-562) | CC50 (A-549; [3]) [µM] | TGI A-549 (A-549) | CC50 (SK-MEL-28) [µM] | TGI MEL-28 (SK-MEL-28) | CC50 (HT-29; [5]) [µM] | TGI HT-29 (HT-29) | CC50 (DU-145) [µM] | TGI DU-145 (DU-145) | CC50 (LNCaP) [µM] | CC50 at 48 h ([1]; LC50 H-MEC-1, SRB assay) [µM] | GI50 (HMEC1; [6]) [µM] | TGI H-MEC-1 (HMEC1; [7]) | also measured
6.09 | 1.03 | 1.43 | 1.03 | 0.902 | 0.415 | COc1nccc(-c2c3c(N)ccnc3n3c(N)nccc23)n1 [Compound 88] | 18.7 | 1.87E−05 | 18.7 | 6.95E−06 | 11.2 | 4.17E−06 | 18.7 | 1.87E−05 | 18.7 | 1.87E−05 | 1.59 | 18.7 | 0.99 | 9.71E−06 | GI50 (LoVo; Homo sapiens, LoVo, 48 h, read-out: GI50 LOVO, SRB assay, 48 hours exposure): 1.34 µM; CC50 (LoVo; Homo sapiens, LoVo, 48 h, read-out: LC50 LOVO, SRB assay, 48 hours exposure): 12.9 µM; TGI LOVO (LoVo; SRB assay, 48 hours exposure): 4.37E−06; GI50 (LoVo-Dox; Homo sapiens, 48 h, read-out: GI50 LOVO-DOX, SRB assay, 48 hours exposure): 1.06 µM; CC50 (LoVo-Dox; Homo sapiens, 48 h, read-out: LC50 LOVO-DOX, SRB assay, 48 hours exposure): 15.1 µM; TGI LOVO-DOX (LoVo-Dox; SRB assay, 48 hours exposure): 3.87E−06; TGI LN-caP (LNCaP): 8.13E−07; GI50 (SK-BR-3): 0.562 µM; CC50 (SK-BR-3): 18.7 µM; TGI SK-BR-3 (SK-BR-3): 1.36E−06; GI50 (IGROV-1): 3.23 µM; CC50 (IGROV-1): 18.7 µM; TGI IGROV (IGROV-1): 9.58E−06; GI50 (IGROV-ET): 1.4 µM; CC50 (IGROV-ET): 18.7 µM; TGI IGROV-ET (IGROV-ET): 6.74E−06; GI50 (PANC-1; Homo sapiens, PANC-1, 48 h): 5.85 µM; CC50 (PANC-1; Homo sapiens, PANC-1, 48 h, read-out: LC50 PANC-1, SRB assay, 48 hours exposure): 18.7 µM; TGI PANC-1 (PANC-1; SRB assay, 48 hours exposure): 1.87E−05
7.6 | 5.49 | 1.26 |  | 1.63 | 1.4 | COc1nccc(-c2c3c(OC)ccnc3n3c(N)nccc23)n1 [Compound 109] | 31 | 2.41E−05 | 31 | 2.33E−05 | 22.4 | 6.64E−06 |  |  | 31 | 3.10E−05 | 31 | 31 | 2.04 | 2.17E−05 | TGI LN-caP (LNCaP): 4.81E−06; GI50 (SK-BR-3): 1.47 µM; CC50 (SK-BR-3): 31 µM; TGI SK-BR-3 (SK-BR-3): 5.40E−06; GI50 (IGROV-1): 3.07 µM; CC50 (IGROV-1): 31 µM; TGI IGROV (IGROV-1): 1.46E−05; GI50 (IGROV-ET): 7.17 µM; CC50 (IGROV-ET): 31 µM; TGI IGROV-ET (IGROV-ET): 2.21E−05; GI50 (PANC-1; Homo sapiens, PANC-1, 48 h): 9.4 µM

Reference: patent publication US7772241B2, “Variolin derivatives and their use as antitumor agents” (Pharma Mar S.A., priority 2001, dated 2010)
